What was measured:
[1] = test system: mice given 5-fluorouracil; experiment: Survival of mice after 12.5 mg of 5-fluorouracil, with or without prior misoprostol; format: in vivo; conditions: 40 μg misoprostol 2 hours before 12.5 mg of 5-fluorouracil; FIG. 4
Procedure: The toxicity of 12.5 mg of 5-fluorouracil alone to mice and the effectiveness of 40 μg of misoprostol given 2 hours prior to administration of 5-fluorouracil to protect from death due to 5-fluorouracil is shown in FIG. 4.

hair follicles = experiment: Hair count / hair loss (alopecia) caused by chemotherapeutic agents, 5 daily treatments; format: in vivo, mice; conditions: 5 days
Procedure: Panel C is a representation of a photomicrograph of an animal given 40 μg of misoprostol, 2 hours before the 0.1 mg daily dose of doxorubicin given each day for 5 days.
(Data are the means of 6 mice (2 fields/mouse)±1 SEM.)
Amount of Hair Loss as a Measure of PG-induced Protection from Alopecia caused by Chemotherapeutic Agents.
One of the side effects of chemotherapy in cancer patients is hair loss or alopecia. Studies were conducted to measure a possible protective effect of PGs from alopecia caused by chemotherapeutic agents. […] The hairs on the rumps of mice (n=4/group) were plucked to induce a growth or anagen cycle within hair follicles which continues for about 18 days. […] Control groups (n=4) received no treatment or misoprostol alone.

[2] = test system: mice given graded doses of doxorubicin (DOX); experiment: DOX dose response: dose killing 50% of the mice within 15 days, alone or after PG or WR-2721; format: in vivo; conditions: 40 μg misoprostol SC 2 hours before graded doses of DOX; death within 15 days; FIG. 5
Procedure: The open triangle is data of a group of 10 mice given WR-2721, 30 minutes before administration of 0.75 mg of doxorubicin. (The lines are computer fit spline curves through the data; n=24 per data point on each curve).
(The lines are computer fit spline curves through the data; n=8 per data point for each of the PG-treated groups and n=24 for the data points of mice treated only with doxorubicin).
It was observed that all acute deaths due to DOX treatment alone occurred before day 15 following DOX administration. Subsequently, the parameter of death within 15 days was used to investigate the DOX dose response administered IP alone or 2 hours after 40 μg of misoprostol was given subcutaneously (sc). In this study, a dose of about 0.5 mg of DOX/average 30 gram mouse, killed 50% of the DOX treated mice (see FIG. 5).
A comparison of PG-induced protection was made to that of protection by WR-2721; an agent reported to protect from some chemotherapeutic agents. […] Two other PGs representing different structural prostaglandins than misoprostol were also investigated for their effectiveness in protecting mice from mortality resulting from administration of graded doses of DOX.

hair medullary cells = experiment: Number of hair medullary cells four days after a single dose of chemotherapeutic agent, with or without misoprostol; format: in vivo, CF1 mice
Procedure: FIG. 13 is a representation of photographs of shafts of hair showing a single line of medullary cells in control mice (Panel A) and in mice 4 days after they were given a single dose of 0.3 mg of VP-16-213 (Panel B).
Number of Hair Medullary Cells as a Measure of Protection from Injury caused by Chemotherapeutic Agents.
The shafts of hair in CF1 mice contain usually a single line of about 50±1 medullary cells. These cells are very sensitive to cytotoxic agents (see Potten, C. S., Geng, L., and Taylor, P., Hair Medullary Cell Counts: a Simple and Sensitive Indicator of Radiation Exposure. Int. J Radiat. Biol., 57:13-21, 1990). Single doses of cytotoxic chemotherapeutic agents greatly reduce the number of medullary cells which reach a nadir at 4 days after administration of the agent. This cell system has been used for the evaluation of misoprostol-induced protection from several chemotherapeutic agents.
CF1 mice had hair from an area of their rump plucked to induce anagen growth as described in Example 2 above. […] In separate groups, mice received misoprostol (40 μg/average 30 g mouse) either subcutaneously or applied topically 2 hours before each of the chemotherapeutic agents listed above. Untreated controls were used since it has been previously determined that water, or 2% EtOH in water, or phosphate buffer at pH=6.8 (the vehicles for the all agents used) had no influence on the cell counts compared to untreated controls. Twenty-five hairs from each animal of each group were dissected from Feulgen stained samples taken from the mice 4 days after treatment.
The number of medullary cells was averaged (n=4) for each treatment group and the results for all chemotherapeutic agents tested to date are presented in Table I.

[3] = test system: white blood cells (WBCs) in the peripheral circulation; experiment: WBC counts and differential counts in peripheral blood of DOX treated mice; format: in vivo
Procedure: FIG. 7 is a graph illustrating the protective effect of misoprostol (given 2 hours before doxorubicin) on WBC counts compared to the effect of doxorubicin alone on WBC counts as function of time (in days). (The numbers 1 and 2 are duplicate studies.)
Death within 15 days of DOX treatment alone is most likely associated with bone marrow injury. […] DOX, therefore, appears to not only reduce the total WBC, but has a particularly marked effect on lymphocytes.

[4] = test system: mice given doxorubicin (DOX); experiment: Survival of mice (percent survival over 15 days) after doxorubicin, with or without prior prostaglandin; conditions: n=16
Procedure: FIG. 1 is a graph illustrating percent survival of mice over 15 days as a function of the time interval (in hours) between the administration of misoprostol and the subsequent administration of doxorubicin. (The two curves represent duplicate experiments; 12 animals per experiment.)
FIG. 2 is a graph illustrating the percent survival of mice over 15 days following the administration of 0.5 mg of doxorubicin (open circles) and mice given 40 μg of misoprostol 2 hours before administration of 0.5 mg of doxorubicin (filled circles). (N=16 for each group).
FIG. 3 is a graph illustrating the percent survival of mice over 15 days following the administration of 0.75 mg of doxorubicin (open circles) and mice given 40 μg of misoprostol 2 hours before administration of 0.75 mg of doxorubicin (filled circles). (N=16 for each group).
Mortality of mice is a measure of PG-induced protection from death due to severe normal tissue injury inflicted by chemotherapy agents.
This assay was accomplished by injecting intraperitoneally (IP) separate groups of mice with a range of doses of chemotherapeutic agents. […] In some groups of mice, longevity was recorded by plotting the number of animals remaining alive (percent survival) versus time following the administration of the chemotherapeutic agent.
PG-induced protection from the toxic chemotherapeutic agents was measured by subcutaneous (SC) injection of the PG at various times prior to or after the IP administration of the chemotherapeutic agent. […] The time interval was varied from 15 minutes to 5 hours. The two curves represent two separate experiments with 20 mice in each experiment. The "0" time point is the percentage of mice that survived 15 days after administration of doxorubicin alone.

SMILES: CCCCC(C)(O)C/C=C/[C@H]1[C@H](O)CC(=O)[C@@H]1CCCCCCC(=O)OC (mixture of isomers) [misoprostol, (±)(16RS)-15-deoxy-16-hydroxy-16-methyl prostaglandin E1, methyl ester]
- protection of mice from death due to 5-fluorouracil [1]: effective in protecting mice from damaging effects of 5-fluorouracil
- number of hairs, misoprostol + DOX (hair follicles; 40 μg misoprostol SC 2 hours before each daily 0.1 mg DOX, FIG. 9): 213±7.8 hairs per 4.42 sq. mm
- number of hairs, misoprostol + CTX (hair follicles; 40 μg misoprostol SC 2 hours before each daily 1.0 mg cytoxan, FIG. 10): 222+5.5 hairs per 4.42 sq. mm
- DOX dose required to kill 50% of the population of mice, after misoprostol [2]: about 1.0 mg of DOX/average 30 gram mouse
- Number of Medullar Cells ± 1 SEM, misoprostol subcutaneously (hair medullary cells; 40 μg SC 2 hrs before 5 FU (1.0 mg)): 37.4 ± 5.0
- Number of Medullar Cells ± 1 SEM, misoprostol subcutaneously (hair medullary cells; 40 μg SC 2 hrs before ARA-C (8 mg)): 40.1 ± 0.7
- Number of Medullar Cells ± 1 SEM, misoprostol subcutaneously (hair medullary cells; 40 μg SC 2 hrs before Bleomycin (0.05 mg)): 27.9 ± 1.2
- Number of Medullar Cells ± 1 SEM, misoprostol subcutaneously (hair medullary cells; 40 μg SC 2 hrs before CTX (1 mg)): 33.1 ± 1.3
- Number of Medullar Cells ± 1 SEM, misoprostol subcutaneously (hair medullary cells; 40 μg SC 2 hrs before Carboplatin (1.0 mg)): 31.2 ± 2.4
- Number of Medullar Cells ± 1 SEM, misoprostol subcutaneously (hair medullary cells; 40 μg SC 2 hrs before Cisplatin (0.25 mg)): 14.3 ± 0.4
- Number of Medullar Cells ± 1 SEM, misoprostol subcutaneously (hair medullary cells; 40 μg SC 2 hrs before DOX (0.3 mg)): 30.0 ± 1.1
- Number of Medullar Cells ± 1 SEM, misoprostol subcutaneously (hair medullary cells; 40 μg SC 2 hrs before HU (10 mg)): 38.9 ± 0.7
- Number of Medullar Cells ± 1 SEM, misoprostol subcutaneously (hair medullary cells; 40 μg SC 2 hrs before Methotrexate (0.2 mg)): 50.6 ± 0.6
- Number of Medullar Cells ± 1 SEM, misoprostol subcutaneously (hair medullary cells; 40 μg SC 2 hrs before Mitomycin C (0.01 mg)): 38.2 ± 1.9
- Number of Medullar Cells ± 1 SEM, misoprostol subcutaneously (hair medullary cells; 40 μg SC 2 hrs before Taxol (0.6 mg)): 26.0 ± 3.5
- Number of Medullar Cells ± 1 SEM, misoprostol subcutaneously (hair medullary cells; 40 μg SC 2 hrs before VP-16-213 (0.3 mg)): 34.4 ± 1.1
- Number of Medullar Cells ± 1 SEM, misoprostol topical (hair medullary cells; 40 μg topical 2 hrs before ARA-C (8 mg)): 43.1 ± 1.7
- Number of Medullar Cells ± 1 SEM, misoprostol topical (hair medullary cells; 40 μg topical 2 hrs before Bleomycin (0.05 mg)): 28.1 ± 1.0
- Number of Medullar Cells ± 1 SEM, misoprostol topical (hair medullary cells; 40 μg topical 2 hrs before CTX (1 mg)): 31.5 ± 2.2
- Number of Medullar Cells ± 1 SEM, misoprostol topical (hair medullary cells; 40 μg topical 2 hrs before DOX (0.3 mg)): 27.0 ± 1.3
- Number of Medullar Cells ± 1 SEM, misoprostol topical (hair medullary cells; 40 μg topical 2 hrs before HU (10 mg)): 40.7 ± 1.0
- Number of Medullar Cells ± 1 SEM, misoprostol topical (hair medullary cells; 40 μg topical 2 hrs before Methotrexate (0.2 mg)): 46.7 ± 2.2
- Number of Medullar Cells ± 1 SEM, misoprostol topical (hair medullary cells; 40 μg topical 2 hrs before VP-16-213 (0.3 mg)): 33.0 ± 1.6
- lack of protection of medullary cells (hair medullary cells; ARA-C, bleomycin, HU (misoprostol given systemically), cisplatin, carboplatin or 5-FU treated mice): did not protect medullary cells
- percentage of lymphocytes, misoprostol before DOX ([3]; 40 μg of misoprostol 2 hours before 0.5 mg of DOX, differential counts of peripheral blood): greater than 30%
- WBC counts, misoprostol before DOX ([3]; misoprostol 40 μg/30 gram mouse 2 hours before DOX (0.5 mg/30 gram mouse), FIG. 7): remained near control levels
- percent still alive by day 15, misoprostol before DOX ([4]; 40 μg misoprostol 2 hours before 0.75 mg of DOX, FIG. 3): about 85%
- percent survival after 15 days, misoprostol before DOX ([4]; 40 μg misoprostol SC 2 hours before 0.5 mg of doxorubicin, FIG. 2): 100%

Reference: patent US5578643A, “Protective prostaglandins for use in conjunction with chemotherapeutic agents” (Loyola University of Chicago, priority 1994, dated 1996)
